Source: patent US4146631A, “Benzamide derivatives” (May & Baker Limited, priority 1976, dated 1979)

Legend:
[1] = Acute oral toxicity in mice; conditions: mouse, in vivo, highest dose used 1000 mg/kg, read-out: LD50 (doses lethal to 50% of mice tested)
Excerpt: Mice were each treated orally with one of the compounds of formula I, and they were observed daily until there had been at least 3 consecutive days without any deaths. The LD50 figures obtained (doses lethal to 50% of mice tested) are shown below in Table IV, expressed in mg/kg animal body weight.
The symbol ">" means "greater than" in this specification. Where the LD50 is said to be ">1000," a more precise estimation of the LD50 was not possible because the numbers of deaths was too small, even at the highest dose used, 1000 mg/kg.

[2] = Acute intravenous toxicity in mice; conditions: mouse, in vivo
Excerpt: Mice were each treated intravenously with an aqueous solution of the triethanolamine salt or sodium salt of one of the compounds of formula I, and they were observed until there had been at least 3 consecutive days without any deaths. The LD50 figures obtained (doses lethal to 50% of mice tested) are shown below in Table V, expressed in mg/kg animal body weight. In Table V, "Na" means that the sodium salt was used and "T" means that the triethanolamine salt was used.
The aqueous solutions were prepared as follows:
A mixture of the test compound and water was treated gradually with triethanolamine until complete solution occurred. The solution was then diluted with water to a concentration of test compound of either 1% w/v or 2% w/v.
The test compound was dissolved in aqueous sodium hydroxide (1N) and the solution was brought to pH 8 by treatment with hydrochloric acid. The solution was then diluted with water to a concentration of test compound of 2% w/v.
Various volumes of these solutions were then administered to the mice.

[3] = tested on: passive cutaneous anaphylactic (PCA) reaction; assay: Passive cutaneous anaphylactic (PCA) reaction, reagin-allergen combination, in rats; assay type: in vivo; conditions: Rattus norvegicus; for ED100: intravenous, just before injection of allergen, read-out: ED100 (intravenous dose which produces 100% inhibition of the PCA reaction); for inhibition in vivo at 100 mg/kg: oral dose of 100 mg/kg; for inhibition in vivo at 100 mg/kg / ED50: thirty minutes before intravenous allergen; for ED50: oral, read-out: ED50 (oral dose which produces 50% inhibition of the PCA reaction)
Excerpt: In pharmacological tests the benzamide derivatives of general formula I suppress the passive cutaneous anaphylactic (PCA) reaction resulting from combination of tissue-fixed reaginic antibodies with the appropriate antigenic material (termed reagin-allergen combination) and carried out in an essentially similar manner to that described by Ogilvie [Nature (Lond.), (1964), 204, 91-92; Immunology, (1967), 12, 112-131]. In the method used to test these compounds sera were obtained from rats which had been infected with larvae of the nematode parasite Nippostrongylus brasiliensis; as a result of the parasitic infestation reaginic antibodies are elaborated in the host mammal and are found in sera removed from such animals. Other, non-infected, rats received intradermal injections of appropriate dilutions of such sera and were then given the allergenic material along with Evans' blue dye intravenously forty-eight hours later.
The allergenic material consisted of supernatant fluid after centrifugation of homogenates of adult Nippostrongylus brasiliensis worms which had been macerated in Tyrode's solution. The sites of PCA reactions were visualised by the effusion of Evan's blue dye from the circulation into those areas as a result of increased capillary permeability caused by the release of biologically-active substances from cells where reagin-allergen combination had occurred. The new compounds when given intravenously to the rats just before injection of allergen, or administered orally thirty minutes before intravenous injection of allergen, were able to prevent the development of the PCA reaction, as shown below in Table I, Table II and Table III.

[4] = sodium salt (Na), 2% w/v test solution
[5] = triethanolamine salt (T), 2% w/v test solution

Row | Compound | LD50 [1] | LD50 [2, 4] | ED100 [3] | inhibition in vivo at 100 mg/kg [3] | ED50 [3] | LD50 [2, 5] | LD50 ([2]; triethanolamine salt (T), 1% w/v test solution) | LD50 ([2]; triethanolamine salt (T), 1% w/v solution for lower doses, 2% w/v for higher doses)
1 | CCCCN(CCCC)S(=O)(=O)c1ccc(O)c(C(=O)Nc2nnn[nH]2)c1 [AQ, 5-(N,N-dibutylsulphamoyl)-2-hydroxy-N-(tetrazol-5-yl)benzamide] | > 1000 mg/kg | 280 mg/kg |  |  |  |  |  | 
2 | CC(=O)c1cc(Cl)cc(C(=O)Nc2nnn[nH]2)c1O [Compound AU, 3-acetyl-5-chloro-2-hydroxy-N-(tetrazol-5-yl)benzamide] | > 1000 mg/kg |  | 2 mg/kg | 71% | 1.8 mg/kg | 245 mg/kg |  | 
3 | CC(=O)c1cccc(C(=O)Nc2nnn[nH]2)c1O [CA, 3-acetyl-2-hydroxy-N-(tetrazol-5-yl)benzamide] | > 1000 mg/kg |  | 0.1 mg/kg | 64% |  | 500 mg/kg |  | 
4 | O=C(Nc1nnn[nH]1)c1ccc(Cl)cc1O [AX, 4-chloro-2-hydroxy-N-(tetrazol-5-yl)benzamide] | > 1000 mg/kg |  |  |  |  | 260 mg/kg |  | 
5 | O=C(Nc1nnn[nH]1)c1cccc(Br)c1O [Compound AL, 3-bromo-2-hydroxy-N-(tetrazol-5-yl)benzamide] | 794 mg/kg |  | 10 mg/kg | 69% | 55 mg/kg | 540 mg/kg |  | 
6 | CC(=O)Nc1ccc(C(=O)Nc2nnn[nH]2)c(O)c1 [BB, 4-acetylamino-2-hydroxy-N-(tetrazol-5-yl)benzamide] | > 1000 mg/kg |  | 1 mg/kg | 26% |  | 645 mg/kg |  | 
7 | O=C(Nc1nnn[nH]1)c1cc([N+](=O)[O-])ccc1O [AO, 2-hydroxy-5-nitro-N-(tetrazol-5-yl)benzamide] | > 1000 mg/kg |  | 0.2 mg/kg | 48% | 100 mg/kg | 870 mg/kg |  | 
8 | Cc1ccc(O)c(C(=O)Nc2nnn[nH]2)c1 [AG, 2-hydroxy-5-methyl-N-(tetrazol-5-yl)benzamide] | > 1000 mg/kg | 670 mg/kg | 1 mg/kg |  |  |  |  | 
9 | Cc1cc(C(=O)Nc2nnn[nH]2)c(O)c(S(=O)(=O)NC(C)(C)C)c1 [BT, 3-(N-tert-butylsulphamoyl)-2-hydroxy-5-methyl-N-(tetrazol-5-yl)benzamide] | > 1000 mg/kg | 500 mg/kg |  |  |  |  |  | 
10 | O=C(Nc1nnn[nH]1)c1cc(-c2ccccc2)ccc1O [BG, 2-hydroxy-5-phenyl-N-(tetrazol-5-yl)benzamide] | > 1000 mg/kg |  | 10 mg/kg |  |  |  | 200 mg/kg | 
11 | CCCOc1cccc(C(=O)Nc2nnn[nH]2)c1O [Compound AN, 2-hydroxy-3-propoxy-N-(tetrazol-5-yl)benzamide] | > 1000 mg/kg |  | 0.5 mg/kg | 87% | 40 mg/kg | 480 mg/kg |  | 
12 | CCCC(=O)c1cc(CC)cc(C(=O)Nc2nnn[nH]2)c1O [Compound CG, 3-butyryl-5-ethyl-2-hydroxy-N-(tetrazol-5-yl)benzamide] | > 1000 mg/kg |  | 0.1 mg/kg | 55% | 2.2 mg/kg |  |  | 270 mg/kg
13 | CC(=O)c1cc(C(C)(C)C)cc(C(=O)Nc2nnn[nH]2)c1O [Compound BZ, 3-acetyl-5-tert-butyl-2-hydroxy-N-(tetrazol-5-yl)benzamide] | > 1000 mg/kg |  | 0.5 mg/kg | 59% | 2.6 mg/kg | 240 mg/kg |  | 
14 | CCC(=O)c1cc(CC)cc(C(=O)Nc2nnn[nH]2)c1O [CF, 5-ethyl-2-hydroxy-3-propionyl-N-(tetrazol-5-yl)benzamide] | > 1000 mg/kg |  | 0.05 mg/kg | 41% | 0.27 mg/kg | 280 mg/kg |  | 
15 | CCC(=O)c1cc(C)cc(C(=O)Nc2nnn[nH]2)c1O [CE, 2-hydroxy-5-methyl-3-propionyl-N-(tetrazol-5-yl)benzamide] | > 1000 mg/kg |  | 0.05 mg/kg | 99% | 0.4 mg/kg | 270 mg/kg |  | 
16 | O=C(Nc1nnn[nH]1)c1cc(Cl)ccc1O [Compound AD, 5-chloro-2-hydroxy-N-(tetrazol-5-yl)benzamide] | > 1000 mg/kg | 480 mg/kg | 1 mg/kg | 94% | 13 mg/kg |  |  | 
17 | CC(=O)c1cc(C(=O)Nc2nnn[nH]2)c(O)c(C(C)=O)c1O [AW, 3,5-diacetyl-2,4-dihydroxy-N-(tetrazol-5-yl)benzamide] | > 1000 mg/kg |  | 5 mg/kg | 84% |  | 710 mg/kg |  | 

Row | Compound | LD50 [1] | LD50 [2, 4] | ED100 [3] | inhibition in vivo at 100 mg/kg [3] | ED50 [3] | LD50 [2, 5] | LD50 ([2]; triethanolamine salt (T), 1% w/v test solution) | LD50 ([2]; triethanolamine salt (T), 1% w/v solution for lower doses, 2% w/v for higher doses)
18 | CC(C)(C)c1ccc(C(=O)Nc2nnn[nH]2)c(O)c1 [BA, 4-tert-butyl-2-hydroxy-N-(tetrazol-5-yl)benzamide] | > 1000 mg/kg |  | 10 mg/kg | 37% |  | 230 mg/kg |  | 
19 | CC(=O)c1c(C)c(C)cc(C(=O)Nc2nnn[nH]2)c1O [BX, 3-acetyl-2-hydroxy-4,5-dimethyl-N-(tetrazol-5-yl)benzamide] | > 1000 mg/kg |  | 20 mg/kg |  |  | 870 mg/kg |  | 
20 | O=Cc1cccc(C(=O)Nc2nnn[nH]2)c1O [CH, 3-formyl-2-hydroxy-N-(tetrazol-5-yl)benzamide] |  |  | 0.5 mg/kg | 75% | 5.3 mg/kg |  |  | 
21 | Cc1cccc(C(=O)Nc2nnn[nH]2)c1O [AH, 2-hydroxy-3-methyl-N-(tetrazol-5-yl)benzamide] | > 1000 mg/kg |  | 0.5 mg/kg | 82% | 10 mg/kg | 770 mg/kg |  | 
22 | CS(=O)(=O)c1cccc(C(=O)Nc2nnn[nH]2)c1O [BJ, 2-hydroxy-3-methylsulphonyl-N-(tetrazol-5-yl)benzamide] |  |  | 20 mg/kg | 64% |  |  |  | 
23 | N#Cc1ccc(O)c(C(=O)Nc2nnn[nH]2)c1 [CK, 5-cyano-2-hydroxy-N-(tetrazol-5-yl)benzamide] |  |  | 0.2 mg/kg | 89% | 50 mg/kg |  |  | 
24 | CC(=O)c1cc(Br)cc(C(=O)Nc2nnn[nH]2)c1O [CB, 3-acetyl-5-bromo-2-hydroxy-N-(tetrazol-5-yl)benzamide] |  |  | 2 mg/kg | 66% | 64 mg/kg |  |  | 
25 | O=C(Nc1nnn[nH]1)c1ccc(F)cc1O [BD, 4-fluoro-2-hydroxy-N-(tetrazol-5-yl)benzamide] |  |  | 10 mg/kg | 75% |  |  |  | 
26 | O=C(Nc1nnn[nH]1)c1cccc(Cl)c1O [AM, 3-chloro-2-hydroxy-N-(tetrazol-5-yl)benzamide] |  |  | 5 mg/kg | 82% | 85 mg/kg |  |  | 
27 | Cc1ccc(C(=O)Nc2nnn[nH]2)c(O)c1 [AK, 2-hydroxy-4-methyl-N-(tetrazol-5-yl)benzamide] |  |  | 10 mg/kg | 32% |  |  |  | 
28 | CSc1cccc(C(=O)Nc2nnn[nH]2)c1O [BI, 2-hydroxy-3-methylthio-N-(tetrazol-5-yl)benzamide] |  |  | 20 mg/kg |  |  | 580 mg/kg |  | 
29 | O=Cc1ccc(O)c(C(=O)Nc2nnn[nH]2)c1 [BL, 5-formyl-2-hydroxy-N-(tetrazol-5-yl)benzamide] |  |  | 0.5 mg/kg | 25% |  |  |  | 
30 | COc1ccc(C(=O)Nc2nnn[nH]2)c(O)c1 [AT, 2-hydroxy-4-methoxy-N-(tetrazol-5-yl)benzamide] |  |  | 5 mg/kg | 8% |  |  |  | 
31 | CC(C)N(C)S(=O)(=O)c1ccc(O)c(C(=O)Nc2nnn[nH]2)c1 [AC, 2-hydroxy-5-(N-methyl-N-isopropylsulphamoyl)-N-(tetrazol-5-yl)benzamide] |  |  | 5 mg/kg | 20% |  |  |  | 
32 | O=C(Nc1nnn[nH]1)c1cc(C(F)(F)F)ccc1O [Compound BV, 5-trifluoromethyl-2-hydroxy-N-(tetrazol-5-yl)benzamide] |  |  | 2 mg/kg | 90% | 37 mg/kg |  |  | 
33 | O=C(Nc1nnn[nH]1)c1cc(O)ccc1O [AF, 2,5-dihydroxy-N-(tetrazol-5-yl)benzamide] |  |  | 1 mg/kg |  |  |  |  | 
34 | O=C(Nc1nnn[nH]1)c1ccc([N+](=O)[O-])cc1O [Compound AA, 2-hydroxy-4-nitro-N-(tetrazol-5-yl)benzamide] |  |  | 10 mg/kg | 18% |  |  |  | 
